Our source for the LC retention time values is the RepoRT retention time repository.

Each structure is given as a SMILES string.

The nature of the data set: HILIC, Waters ACQUITY UPLC BEH Amide, 100 × 2.1 mm, 1.7 µm; A: water + 0.125% formic acid + 10 mM ammonium formate; B: 5% water + 95% acetonitrile + 0.125% formic acid + 10 mM ammonium formate; gradient (min/%B) 0/100 2/100 7.7/70 9.5/40 10.25/30 12.75/100 17/100. The settings on record: stereoisomer not certain.
`NC(=O)CCC(NC(=O)Cc1ccccc1)C(=O)O` (stereo unspecified) [Phenylacetylglutamine]: the LC retention time was found to be 6.03 min.

Regarding `O=C(O)CNC(=O)Cc1ccccc1` [Phenylacetylglycine], the LC retention time is 2.88 min.

For `NCC(O)c1ccccc1` (stereo unspecified) [Phenylethanolamine], the LC retention time was 5.51 min.

With `O=P(O)(O)Oc1ccccc1` [Phenylphosphoric acid], the LC retention time is 7.05 min.

`CC(N)C(O)c1ccccc1` (stereo unspecified) [Phenylpropanolamine]: the LC retention time turned out to be 5.29 min.

As to `O=C(CCc1ccc(O)cc1)c1c(O)cc(O)cc1O` [Phloretin], the LC retention time was 1.5 min.

As for `O=C(c1ccccc1)c1c(O)cc(O)cc1O` [Phlorobenzophenone], the LC retention time stood at 1.34 min.

`Oc1cc(O)cc(O)c1` [Phloroglucinol]: the LC retention time stood at 1.15 min.

On to `C=C(OP(=O)(O)O)C(=O)O` [Phosphoenolpyruvic acid], for which the LC retention time came out at 9.05 min.

Take `O=C(O)CP(=O)(O)O` [Phosphonoacetic acid]: the LC retention time turned out to be 9.73 min.

For `NC(Cc1ccc(OP(=O)(O)O)cc1)C(=O)O` (stereo unspecified) [Phosphotyrosine], the LC retention time is 9.72 min.

On to `O=C(O)c1ccccc1C(=O)O` [Phthalic acid], for which the LC retention time was 1.15 min.

With `CNC(=O)Oc1ccc2c(c1)C1(C)CCN(C)C1N2C` (stereo unspecified) [Physostigmine], the LC retention time came out at 3.17 min.

In the case of `CCCCCCCCCCCCCCC(O)C(O)C(N)CO` (stereo unspecified) [Phytosphingosine], the LC retention time amounted to 5.18 min.

In the case of `CC(C)(O)C1C2OC(=O)C1C1(O)CC3OC34C(=O)OC2C14C` (stereo unspecified) [Picrotin], the LC retention time was found to be 1.21 min.

For `O=C1CCC(C(=O)N2CSCC2C(=O)O)N1` (stereo unspecified) [Pidotimod], the LC retention time stood at 7.3 min.

For the molecule `CCC1C(=O)OCC1Cc1cncn1C` (stereo unspecified) [Pilocarpine], the LC retention time came out at 2.23 min.

Consider `CC(N=C(NC#N)Nc1ccncc1)C(C)(C)C` (stereo unspecified) [Pinacidil], for which the LC retention time worked out at 1.49 min.

As to `CCc1ccc(CCOc2ccc(CC3SC(=O)NC3=O)cc2)nc1` (stereo unspecified) [Pioglitazone], the LC retention time was 1.11 min.

Take `O=C(O)C1CCCCN1` (stereo unspecified) [Pipecolic acid]: the LC retention time is 7.83 min.

With `O=C(C=CC=Cc1ccc2c(c1)OCO2)N1CCCCC1` [Piperine], the LC retention time amounted to 1.1 min.

As to `Cc1nc2ccccn2c(=O)c1CCN1CCC(C(=O)c2ccc(F)cc2)CC1` [Pirenperone], the LC retention time was determined as 3.5 min.

`CN1C(C(=O)Nc2ccccn2)=C(O)c2ccccc2S1(=O)=O` [Piroxicam]: the LC retention time worked out at 1.02 min.

Turning to `O=C(O)CC(O)CC(O)C=Cc1c(C2CC2)nc2ccccc2c1-c1ccc(F)cc1` (stereo unspecified) [Pitavastatin], the LC retention time came to 1.36 min.

On to `CN1CCC(=C2c3ccccc3CCc3sccc32)CC1` [Pizotifen], for which the LC retention time worked out at 2.33 min.

Regarding `NCc1[nH]cc(CCC(=O)O)c1CC(=O)O` [Porphobilinogen], the LC retention time worked out at 7.4 min.

In the case of `CCCNC1CCc2nc(N)sc2C1` (stereo unspecified) [Pramipexole], the LC retention time turned out to be 5.7 min.

As for `CCC(C)C(=O)OC1CC(O)C=C2C=CC(C)C(CCC(O)CC(O)CC(=O)O)C21` (stereo unspecified) [Pravastatin], the LC retention time came to 1.8 min.

Regarding `O=C1CN=C(c2ccccc2)c2cc(Cl)ccc2N1CC1CC1` [Prazepam], the LC retention time came to 1.07 min.

With `COc1cc2nc(N3CCN(C(=O)c4ccco4)CC3)nc(N)c2cc1OC` [Prazosin], the LC retention time turned out to be 3.75 min.

In the case of `NC(=O)CCC(NC(=O)C1CCCN1)C(=O)O` (stereo unspecified) [Pro-Gln], the LC retention time stood at 8.75 min.

Regarding `CNNCc1ccc(C(=O)NC(C)C)cc1` [Procarbazine], the LC retention time is 4.61 min.

With `CN1CCN(CCCN2c3ccccc3Sc3ccc(Cl)cc32)CC1` [Prochlorperazine], the LC retention time was determined as 2.56 min.

Take `CC(=O)C1CCC2C3CCC4=CC(=O)CCC4(C)C3CCC12C` (stereo unspecified) [Progesterone]: the LC retention time was found to be 0.97 min.

In the case of `O=C(O)C1CC(O)CN1C(=O)C1CCCN1` (stereo unspecified) [Proline-hydroxyproline], the LC retention time is 8.6 min.

For `O=C(O)C1CCCN1` (stereo unspecified) [Proline], the LC retention time was 7.83 min.

As to `CCC(=O)Nc1ccc(Cl)c(Cl)c1` [Propanil], the LC retention time amounted to 1.08 min.

In the case of `CCC(=O)OC(CC(=O)[O-])C[N+](C)(C)C` (stereo unspecified) [Propionylcarnitine], the LC retention time is 6.41 min.

Consider `CCC(=O)OC(Cc1ccccc1)(c1ccccc1)C(C)CN(C)C` (stereo unspecified) [Propoxyphene], for which the LC retention time amounted to 2.01 min.

Take `COc1cc(C=Cc2ccc(O)cc2)cc(OC)c1` [Pterostilbene]: the LC retention time was 0.98 min.

On to `c1ncc2[nH]cnc2n1` [Purine], for which the LC retention time came to 2.44 min.

For the molecule `NCCCCN` [Putrescine], the LC retention time came out at 9.3 min.

In the case of `CCOC(=O)COc1cc(-c2nn(C)c(OC(F)F)c2Cl)c(F)cc1Cl` [Pyrafluefen-ethyl], the LC retention time stood at 1.02 min.

On to `c1ccncc1` [Pyridine], for which the LC retention time was 6.63 min.

For the molecule `Cc1ncc(COP(=O)(O)O)c(C=O)c1O` [Pyridoxal-5-phosphate], the LC retention time worked out at 7.7 min.

As to `Cc1ncc(CO)c(C=O)c1O` [Pyridoxal], the LC retention time was determined as 2.18 min.

Consider `Cc1ncc(CO)c(CN)c1O` [Pyridoxamine], for which the LC retention time came out at 8.1 min.

With `Cc1ncc(CO)c(CO)c1O` [Pyridoxine], the LC retention time amounted to 3.78 min.

As for `O=C1CCC(C(=O)O)N1` (stereo unspecified) [Pyroglutamic acid], the LC retention time amounted to 8.71 min.

Consider `O=C(O)c1ccc[nH]1` [Pyrrole-2-carboxylic acid], for which the LC retention time came to 5.66 min.

As to `CC(=O)OCC1OC(Oc2c(-c3ccc(O)c(O)c3)oc3cc(O)cc(O)c3c2=O)C(O)C(O)C1O` (stereo not drawn) [Quercetin-3-O-beta-glucopyranosyl-6'-acetate], the LC retention time is 4.61 min.

As to `CC1OC(Oc2c(-c3ccc(O)c(O)c3)oc3cc(O)cc(O)c3c2=O)C(O)C(O)C1O` (stereo unspecified) [Quercetin-3-ramnoside], the LC retention time was found to be 4.7 min.

In the case of `OCCOCCN1CCN(C2=Nc3ccccc3Sc3ccccc32)CC1` [Quetiapine], the LC retention time was 2.54 min.

For the molecule `O=C(O)c1cccnc1C(=O)O` [Quinolinic acid], the LC retention time came out at 2.16 min.

As for `COCCCOc1ccnc(CS(=O)c2nc3ccccc3[nH]2)c1C` (stereo unspecified) [Rabeprazole], the LC retention time turned out to be 2.44 min.

On to `CC(=O)SCC(Cc1ccccc1)C(=O)NCC(=O)OCc1ccccc1` (stereo unspecified) [Racecadotril], for which the LC retention time stood at 0.95 min.

Regarding `CCN1CCCC1CNC(=O)c1c(O)c(Cl)cc(Cl)c1OC` (stereo unspecified) [Raclopride], the LC retention time was 2.11 min.

Regarding `OCC1OC(OCC2OC(OC3(CO)OC(CO)C(O)C3O)C(O)C(O)C2O)C(O)C(O)C1O` (stereo unspecified) [Raffinose], the LC retention time was 9.17 min.

As to `Cc1nc2ccc(CN(C)c3ccc(C(=O)NC(CCC(=O)O)C(=O)O)s3)cc2c(=O)[nH]1` (stereo unspecified) [Raltitrexed], the LC retention time was determined as 7.35 min.

With `CCOC(=O)C(CCc1ccccc1)NC(C)C(=O)N1C(C(=O)O)CC2CCCC21` (stereo unspecified) [Ramipril], the LC retention time was determined as 1.4 min.

Regarding `CNC(=C[N+](=O)[O-])NCCSCc1ccc(CN(C)C)o1` [Ranitidine], the LC retention time turned out to be 5.18 min.
